Source: patent US10906977B2, “Enhancing the therapeutic activity of immune checkpoint inhibitor” (Maine Medical Center Research Institute, priority 2016, dated 2021)

What was measured:
[1] = system: P38MAPK; assay: Phosphorylated P38MAPK in HUVECs attached to collagen peptides (Western blot); assay type: cell-based, human; settings: cells attached to peptide; FIG. 6D
Experimental: (§1) Endothelial cells (HUVECs or HRMVECs) were incubated in serum free media with 1 mM MgCl2, 0.2 mM MnCl2 in the presence of a Src inhibitor, PP2, (10 μM) a P38MAPK inhibitor, SB202190 (10 μM) or vehicle only (DMSO) for 10 min at 37° C. Treated cells were then seeded on to immobilized P-1 and P-2 and lysates were collected at 15 min.
(§2) Whole cell and CAM tissue lysates were collected in RIPA buffer supplemented with 1× protease inhibitor and 1× phosphatase inhibitor and were run on polyacrylamide gels using denaturing conditions. Prior to loading the gels, 6× sample buffer was added to each of the lysates (final concentration 1×) and boiled for five minutes. Twenty to 50 μg of total protein were loaded into each lane. […] Gels were run at 60 volts (v) until the dye front passed through the stacking gel, and then the voltage was increased to 100V for the remainder of the separation. Precision Plus protein standards (Bio-Rad) were used to visualize migration. Protein was transferred to nitrocellulose membranes using a wet tank system and blocked for 1 h using 10% non-fat dried milk in tris-buffered saline with 0.01% Tween-20 (TBS-T). […] Membranes were washed 3 times in TBS-T for five minutes. Blots were then incubated with HRP conjugated secondary antibodies (1:15000) in 1% non-fat milk in TBS-T for 1 h. […] Western blot bands were quantified using Image J software based on pixel intensity.

[2] = system: P38MAPK; assay: Phosphorylated P38MAPK in HRMVEC attached to collagen peptides (Western blot); assay type: cell-based, human; settings: cells attached to peptide; FIG. 6E
Experimental: as §1, §2

[3] = system: Fak; assay: Fak phosphorylation in endothelial cells attached to collagen peptides; assay type: cell-based, human; settings: serum free conditions
Experimental: Whole cell and CAM tissue lysates were collected in RIPA buffer supplemented with 1× protease inhibitor and 1× phosphatase inhibitor and were run on polyacrylamide gels using denaturing conditions. Prior to loading the gels, 6× sample buffer was added to each of the lysates (final concentration 1×) and boiled for five minutes. Twenty to 50 μg of total protein were loaded into each lane. For detection of proteins larger than 50 kD, 10% gels were used; for proteins smaller than 50 kD 15% gels were used. Gels were run at 60 volts (v) until the dye front passed through the stacking gel, and then the voltage was increased to 100V for the remainder of the separation. Precision Plus protein standards (Bio-Rad) were used to visualize migration. Protein was transferred to nitrocellulose membranes using a wet tank system and blocked for 1 h using 10% non-fat dried milk in tris-buffered saline with 0.01% Tween-20 (TBS-T). […] Western blot bands were quantified using Image J software based on pixel intensity.

[4] = system: YAP; assay: Nuclear YAP in endothelial cells attached to collagen peptides; assay type: cell-based, human
Experimental: Whole cell and CAM tissue lysates were collected in RIPA buffer supplemented with 1× protease inhibitor and 1× phosphatase inhibitor and were run on polyacrylamide gels using denaturing conditions. Prior to loading the gels, 6× sample buffer was added to each of the lysates (final concentration 1×) and boiled for five minutes. Twenty to 50 μg of total protein were loaded into each lane. […] Gels were run at 60 volts (v) until the dye front passed through the stacking gel, and then the voltage was increased to 100V for the remainder of the separation. Precision Plus protein standards (Bio-Rad) were used to visualize migration. Protein was transferred to nitrocellulose membranes using a wet tank system and blocked for 1 h using 10% non-fat dried milk in tris-buffered saline with 0.01% Tween-20 (TBS-T). […] Membranes were washed 3 times in TBS-T for five minutes. Blots were then incubated with HRP conjugated secondary antibodies (1:15000) in 1% non-fat milk in TBS-T for 1 h. Membranes were washed a second time as indicated above and exposed to chemiluminecent substrate for three minutes prior to exposure to autoradiography film in a dark room. Western blot bands were quantified using Image J software based on pixel intensity.

[5] = system: HRMVEC; assay: Endothelial cell proliferation with soluble RGD peptides; assay type: cell-based, human; settings: 100 ng/ml, 24 hours; FIG. 8D
Experimental: (§3) HUVECs (WT, shYAP1 or control transfected) or HRMVECs were plated at 2,000 cells per well with complete EGM-2 media containing 2.0% FBS in the absence or presence of P-1, P-2 or P-C (100 ng/ml) and allowed to grow for 24 hours. Cell growth was monitored using a BrdU or MMT assay kits according to manufacturer's instructions. All assays were completed at least three times in triplicate wells.

[6] = system: HUVEC; assay: as above; assay type: cell-based, human; settings: 100 ng/ml, 24 hours; FIG. 8C
Experimental: as §3

[7] = system: PD-L1; assay: PD-L1 in control and β3 integrin knock down T-cells stimulated with peptide (western blot); assay type: cell-based, human; settings: FIG. 33
Experimental: In order to confirm the functional role of integrin αvβ3 receptor in regulating the levels of the immune suppressive molecule PD-L1 by the XL313 cryptic collagen peptide P2, the expression of PD-L1 was examined in β3 integrin knock down and control transfected T-cells. Whole cell lysates from control transfected (Cont T-cells) and β3 integrin shRNA transfected T-cells (β3/KD) that were stimulated with control peptide (PC) or the XL313 cryptic collagen peptide (P2) were analyzed by western blot for expression of PD-L1.

[8] = system: T-cell (Jurkat); assay: T-cell migration on denatured collagen type-IV (transwell); assay type: cell-based, human; settings: P2 1.0 ug/ml; FIG. 34
Experimental: Membranes of transwell migration chambers were coated with denatured collagen type-IV to mimic the altered basement membrane in tumor vessels. Left). T-cell (Jurkat) migration in the presence or absence of the cryptic collagen peptide P2 (1.0 ug/ml) and/or Mab XL313 and non-specific control antibody (50 μg/ml). Right). T-cell (Jurkat) migration in the presence or absence of Raw macrophage concentrated conditioned medium (CM) and/or Mab XL313 and non-specific control antibody (50 μg/ml). Data bars represent mean cell migration+SE from triplicate wells.

[9] = system: LAG3; assay: Checkpoint molecule expression in human T-cell lines stimulated with collagen peptides (Western blot); assay type: cell-based; settings: Jurkat and CCL120.1; FIG. 35
Experimental: In order to confirm the functional ability of the XL313 cryptic collagen peptide P2 to regulate expression of the immune suppressive checkpoint molecule LAG3, αvβ3 expressing human T-cell lines Jurkat and CCL120.1 were stimulated with the cryptic collagen peptide P2 or control collagen peptides P1 or PC. Whole cell lysates from were analyzed for expression of PD-L1 and beta actin (β-Actin).

## CQGPRGDKGEC [Mab P-2]
[1]
  phosphorylation of P38MAPK in HUVECs, as compared to P-1: enhanced phosphorylation of P38MAPK
[2]
  phosphorylation of P38MAPK in HRMVEC, as compared to P-1: enhanced phosphorylation of P38MAPK
[3]
  Fak phosphorylation following ligation of peptide: Minimal Fak phosphorylation
[4]; by 15 minutes, FIG. 8A
  nuclear localized YAP (staining) as compared to P-1: enhanced level of nuclear localized YAP
[4]; cells attached to peptide, FIG. 8B
  increase of nuclear YAP as compared to P-1 (Western blot): approximately 2 fold
[5]
  HRMVEC growth with soluble peptide: enhanced endothelial cell growth
[6]
  HUVEC growth with soluble peptide: enhanced endothelial cell growth
[7]
  expression of PD-L1 in control transfected T-cells: enhanced expression of PD-L1
  expression of PD-L1 in β3 integrin knock down cells: little ability to enhance the expression of PD-L1
[8]
  effect on T-cell migration: inhibitory effects
[9]
  expression of LAG3 in human T-cells: induces expression of the immunosuppressive molecule LAG3
  levels of PD-L1 in stimulated T-cells as compared to controls: clear increase in the levels of PD-L1
